Measurements: US8580829B2 (Boehringer Ingelheim International GmbH, priority 2010, dated 2013)
Where two headings read alike, the source gives them in different places.

Key:
[1] = biological target: T1, recombinant human FLAP protein (Homo sapiens, UniProt P20292); experiment: FLAP binding assay (Scintillation Proximity Assay, displacement of [125I]L-691,831); settings: recombinant human FLAP membranes, [125I]L-691,831 probe; read-out: FLAP SPA IC50
T1 construct: made in house; host or cells: Sf9 insect cells (100,000 x g membrane fraction)
T1 sequence (P20292 1-161): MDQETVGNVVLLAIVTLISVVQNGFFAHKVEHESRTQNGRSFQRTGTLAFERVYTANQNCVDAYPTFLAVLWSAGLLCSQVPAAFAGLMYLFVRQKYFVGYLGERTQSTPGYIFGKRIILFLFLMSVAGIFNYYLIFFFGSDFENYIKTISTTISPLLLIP
Procedure, shortened: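 WGA scintillation proximity beads were stirred 1 h with 5 μg of FLAP-containing membrane protein. The membranes came from baculovirus Sf9 cells, Dounce-lysed and spun to a 100,000×g pellet in buffer at pH 7.5.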

[2] = system: synthesis of LTB4 in human whole blood; experiment: human whole blood LTB4 production inhibition assay; type: cell-based; settings: heparinized human whole blood, calcimycin 20 μM, read-out: hWB LTB4 IC50
Procedure, shortened: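 Steps: compound plus heparinized human whole blood, 15 min at 37° C; add calcimycin to 20 μM final; incubate another 30 min at 37° C; centrifuge at low speed and collect plasma; measure LTB4 with a homogeneous time-resolved fluorescence immunoassay.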

Row | IC50 [1] [nM] | IC50 ([2]; Homo sapiens) [nM] | IC50 [2] [nM] | Structure (SMILES)
1 | 3 | 89 | – | CCN(CC)C(=O)n1cc(-c2nc(C3(c4ccc(-c5cnc(N)nc5)cc4)CCC3)no2)cn1 [Example 211, 4-(3-{1-[4-(2-Amino-pyrimidin-5-yl)-phenyl]-cyclobutyl}-[1,2,4]oxadiazol-5-yl)-pyrazole-1-carboxylic acid diethylamide]
2 | 5.7 | – | > 5000 | COC(=O)[C@@H]1CN(c2cnc(-c3nc(C4(c5ccc(-c6cnc(N)nc6)cc5)CCC4)no3)cn2)CCN1 [Example 126, (S)-5′-(3-{1-[4-(2-Amino-pyrimidin-5-yl)-phenyl]-cyclobutyl}-1,2,4-oxadiazol-5-yl)-3,4,5,6-tetrahydro-2H-1,2′-bipyrazinyl-3-carboxylic acid methyl ester]
3 | 8.4 | 990 | – | Nc1ncc(-c2ccc(C3(c4noc(-c5ccnc(Cl)c5)n4)CCC3)cc2)cn1 [Example 56, 5-(4-{1-[5-(2-Chloro-pyridin-4-yl)-1,2,4-oxadiazol-3-yl]-cyclobutyl}-phenyl)-pyrimidin-2-ylamine]
4 | 2.8 | 38 | – | CCN(C)C(=O)Cn1cc(-c2nc(C3(c4ccc(-c5cnc(N)nc5)cc4)CCC3)no2)cn1 [Example 138, 2-[4-(3-{1-[4-(2-Amino-pyrimidin-5-yl)-phenyl]-cyclobutyl}-1,2,4-oxadiazol-5-yl)-pyrazol-1-yl]-N-ethyl-N-methyl-acetamide]
5 | 260 | 2800 | – | Nc1ncc(-c2ccc(C3(c4noc(Cn5ccnc5)n4)CCC3)cc2)cn1 [Example 277, 5-{4-[1-(5-Imidazol-1-ylmethyl-[1,2,4]oxadiazol-3-yl)-cyclobutyl]-phenyl}-pyrimidin-2-ylamine]
6 | 6.9 | 190 | – | CN(C)C(=O)c1ccc(-c2nc(C3(c4ccc(-c5cnc(N)nc5)cc4)CCC3)no2)cn1 [Example 29, 5-(3-{1-[4-(2-Amino-pyrimidin-5-yl)-phenyl]-cyclobutyl}-1,2,4-oxadiazol-5-yl)-pyridine-2-carboxylic acid dimethylamide]
7 | 1.8 | 460 | – | CC(C)(C#N)NC(=O)Cn1cc(-c2nc(C3(c4ccc(-c5cnc(N)nc5)cc4)CCC3)no2)cn1 [Example 223, 2-[4-(3-{1-[4-(2-Amino-pyrimidin-5-yl)-phenyl]-cyclobutyl}-[1,2,4]oxadiazol-5-yl)-pyrazol-1-yl]-N-(cyano-dimethyl-methyl)-acetamide]
8 | 61 | > 5000 | – | Cc1ccc(C(=O)Nc2nc(C3(c4ccc(-c5cnc(N)nc5)cc4)CCC3)no2)cn1 [Example 178, N-(3-{1-[4-(2-Amino-pyrimidin-5-yl)-phenyl]-cyclobutyl}-1,2,4-oxadiazol-5-yl)-6-methyl-nicotinamide]
9 | 4.5 | – | 75 | CCNC(=O)Cn1cc(-c2nc(C3(c4ccc(-c5cnc(N)nc5)cc4)CCC3)no2)cn1 [Example 204, 2-[4-(3-{1-[4-(2-Amino-pyrimidin-5-yl)-phenyl]-cyclobutyl}-[1,2,4]oxadiazol-5-yl)-pyrazol-1-yl]-N-ethyl-acetamide]
10 | 7 | 1000 | – | Nc1ncc(-c2ccc(C3(c4noc(-c5ccc(F)cc5)n4)CCC3)cc2)cn1 [Example 51, 5-(4-{1-[5-(4-Fluoro-phenyl)-1,2,4-oxadiazol-3-yl]-cyclobutyl}-phenyl)-pyrimidin-2-ylamine]
11 | 3.4 | 210 | – | COC(=O)C(C)(C)Nc1cnc(-c2nc(C3(c4ccc(-c5cnc(N)nc5)cc4)CCC3)no2)cn1 [Example 90, 2-[5-(3-{1-[4-(2-Amino-pyrimidin-5-yl)-phenyl]-cyclobutyl}-1,2,4-oxadiazol-5-yl)-pyrazin-2-ylamino]-2-methyl-propionic acid methyl ester]
12 | 3.5 | 190 | – | Nc1ncc(-c2ccc(C3(c4noc(-c5ccc(C(=O)N6CCC(F)(F)C6)nc5)n4)CCC3)cc2)cn1 [Example 75, [5-(3-{1-[4-(2-Amino-pyrimidin-5-yl)-phenyl]-cyclobutyl}-1,2,4-oxadiazol-5-yl)-pyridin-2-yl]-(3,3-difluoro-pyrrolidin-1-yl)-methanone]
13 | 1.8 | 26 | – | Nc1ncc(-c2ccc(C3(c4noc(-c5cnn(CCN6CCOCC6)c5)n4)CCC3)cc2)cn1 [Example 232, 5-[4-(1-{5-[1-(2-Morpholin-4-yl-ethyl)-1H-pyrazol-4-yl]-[1,2,4]oxadiazol-3-yl}-cyclobutyl)-phenyl]-pyrimidin-2-ylamine]
14 | 8.5 | 400 | – | Nc1ncc(-c2ccc(C3(c4noc(-c5cccnn5)n4)CCC3)cc2)cn1 [Example 8, 5-{4-[1-(5-Pyridazin-3-yl-1,2,4-oxadiazol-3-yl)-cyclobutyl]-phenyl}-pyrimidin-2-ylamine]
15 | 3.9 | 140 | – | CN(C)C(=O)C(C)(C)Cn1cc(-c2nc(C3(c4ccc(-c5cnc(N)nc5)cc4)CCC3)no2)cn1 [Example 129, 3-[4-(3-{1-[4-(2-Amino-pyrimidin-5-yl)-phenyl]-cyclobutyl}-1,2,4-oxadiazol-5-yl)-pyrazol-1-yl]-2,2,N,N-tetramethyl-propionamide]
16 | 3.3 | 250 | – | Nc1ncc(-c2ccc(C3(c4noc(-c5ccc(Cl)nc5)n4)CCC3)cc2)cn1 [Example 101, 5-(4-{1-[5-(6-Chloro-pyridin-3-yl)-1,2,4-oxadiazol-3-yl]-cyclobutyl}-phenyl)-pyrimidin-2-ylamine]
17 | 2.5 | 180 | – | Nc1ncc(-c2ccc(C3(c4noc(-c5ccc(N6CCC[C@@H]6CO)nc5)n4)CCC3)cc2)cn1 [Example 102, {(R)-1-[5-(3-{1-[4-(2-Amino-pyrimidin-5-yl)-phenyl]-cyclobutyl}-1,2,4-oxadiazol-5-yl)-pyridin-2-yl]-pyrrolidin-2-yl}-methanol]
18 | 7.7 | 310 | – | Nc1ncc(-c2ccc(C3(c4noc(-c5ccc(C(=O)N6CC(O)C6)nc5)n4)CCC3)cc2)cn1 [Example 64, [5-(3-{1-[4-(2-Amino-pyrimidin-5-yl)-phenyl]-cyclobutyl}-1,2,4-oxadiazol-5-yl)-pyridin-2-yl]-(3-hydroxy-azetidin-1-yl)-methanone]
19 | 33 | 1700 | – | Nc1ncc(-c2ccc(C3(c4noc(-c5ccncc5)n4)CCOCC3)cc2)cn1 [Example 147, 5-{4-[4-(5-Pyridin-4-yl-1,2,4-oxadiazol-3-yl)-tetrahydro-pyran-4-yl]-phenyl}-pyrimidin-2-ylamine]
20 | 5.6 | 350 | – | Cn1cc(-c2nc(C3(c4ccc(-c5cnc(N)nc5)cc4)CCC3)no2)ccc1=O [Example 3, 5-(3-{1-[4-(2-Amino-pyrimidin-5-yl)-phenyl]-cyclobutyl}-1,2,4-oxadiazol-5-yl)-1-methyl-1H-pyridin-2-one]
21 | 3.9 | 190 | – | COCCNC(=O)c1ccc(-c2nc(C3(c4ccc(-c5cnc(N)nc5)cc4)CCC3)no2)cn1 [Example 76, 5-(3-{1-[4-(2-Amino-pyrimidin-5-yl)-phenyl]-cyclobutyl}-1,2,4-oxadiazol-5-yl)-pyridine-2-carboxylic acid (2-methoxy-ethyl)-amide]
22 | 5.8 | 120 | – | Nc1ncc(-c2ccc(C3(c4noc(-c5cnn(CC(=O)N6CCOCC6)c5)n4)CCC3)cc2)cn1 [Example 134, 2-[4-(3-{1-[4-(2-Amino-pyrimidin-5-yl)-phenyl]-cyclobutyl}-1,2,4-oxadiazol-5-yl)-pyrazol-1-yl]-1-morpholin-4-yl-ethanone]
23 | 2.4 | 50 | – | Cn1ncc(-c2nc(C3(c4ccc(-c5cnc(N)nc5)cc4)CCC3)no2)c1N [Example 7, 5-(4-{1-[5-(5-Amino-1-methyl-1H-pyrazol-4-yl)-1,2,4-oxadiazol-3-yl]-cyclobutyl}-phenyl)-pyrimidin-2-ylamine]
24 | 2.6 | > 5000 | – | Nc1ncc(-c2ccc(C3(c4noc(-c5cc(Cl)c[nH]c5=O)n4)CCC3)cc2)cn1 [Example 191, 3-(3-{1-[4-(2-Amino-pyrimidin-5-yl)-phenyl]-cyclobutyl}-1,2,4-oxadiazol-5-yl)-5-chloro-1H-pyridin-2-one]
25 | 4 | 550 | – | COc1cc(-c2nc(C3(c4ccc(-c5cnc(N)nc5)cc4)CCC3)no2)on1 [Example 33, 5-(4-{1-[5-(3-Methoxy-isoxazol-5-yl)-1,2,4-oxadiazol-3-yl]-cyclobutyl}-phenyl)-pyrimidin-2-ylamine]
26 | 8.4 | 690 | – | N#Cc1ccc(-c2nc(C3(c4ccc(-c5cnc(N)nc5)cc4)CCC3)no2)cc1 [Example 42, 4-(3-{1-[4-(2-Amino-pyrimidin-5-yl)-phenyl]-cyclobutyl}-1,2,4-oxadiazol-5-yl)-benzonitrile]
27 | 8.3 | 470 | – | Nc1ncc(-c2ccc(C3(c4noc(N5CCCC5)n4)CCC3)cc2)cn1 [Example 12, 5-{4-[1-(5-Pyrrolidin-1-yl-1,2,4-oxadiazol-3-yl)-cyclobutyl]-phenyl}-pyrimidin-2-ylamine]
28 | 2.4 | 27 | – | Cn1cc(-c2nc(C3(c4ccc(-c5cnc6[nH]ccc6n5)cc4)CCC3)no2)cn1 [Example 262, 2-(4-{1-[5-(1-Methyl-1H-pyrazol-4-yl)-[1,2,4]oxadiazol-3-yl]-cyclobutyl}-phenyl)-5H-pyrrolo[2,3-b]pyrazine]
29 | 3.3 | > 5000 | – | Nc1ncc(-c2ccc(C3(c4noc(-c5c[nH]c(=O)cn5)n4)CCC3)cc2)cn1 [Example 16, 5-(3-{1-[4-(2-Amino-pyrimidin-5-yl)-phenyl]-cyclobutyl}-1,2,4-oxadiazol-5-yl)-1H-pyrazin-2-one]
